Usually solubility stands for how much of the substance goes into solution per volume. A lower solubility goes with a poorly soluble substance.

Data set [1] is described as follows: Aqueous solubility of compound at pH 7. Type of data set: physicochemical.
Data set [2] in a line: Prodrug activation in human intestinal S9 fraction assessed as S-(-)-nadifloxacin release measured after 90 mins by LC-MS/MS analysis. It is filed as subcellular, Intestine. The settings on record: s9, 1.5 h.
Data set [3] in a line: Prodrug activation in human liver S9 fraction assessed as S-(-)-nadifloxacin release measured after 30 to 60 mins by LC-MS/MS analysis. Type of data set: subcellular. The settings on record: time 30-60 min.
The nature of data set [4]: Prodrug activation in human whole blood assessed as S-(-)-nadifloxacin release measured after 30 to 60 mins by LC-MS/MS analysis. Type of data set: tissue-based. The settings on record: time 30-60 min.

Turning to `C[C@H]1CCc2c(N3CCC(O)CC3)c(F)cc3c(=O)c(C(=O)O)cn1c23.N=C(N)NCCC[C@H](N)C(=O)O.O.O.O.O`, in data set [1], the solubility was below 1 mg/mL.

`CC(C)[C@H](N)C(=O)OC1CCN(c2c(F)cc3c(=O)c(C(=O)O)cn4c3c2CC[C@@H]4C)CC1` gave a solubility in data set [1] above 200 mg/mL.

In the case of `CS(=O)(=O)O.C[C@H](N)C(=O)OC1CCN(c2c(F)cc3c(=O)c(C(=O)O)cn4c3c2CC[C@@H]4C)CC1`, the solubility in data set [1] was below 1 mg/mL. For the same molecule, the Drug metabolism result in data set [2], in data set [3] and in data set [4] was “Metabolite_Detected” in each case.

In data set [1], `CC(C)[C@H](N)C(=O)OC1CCN(c2c(F)cc3c(=O)c(C(=O)O)cn4c3c2CC[C@@H]4C)CC1.CS(=O)(=O)O` gave a solubility above 200 mg/mL.

Values taken from ChEMBL document CHEMBL5029180, “Design and synthesis of an oral prodrug alalevonadifloxacin for the treatment of MRSA infection” (Bioorg Med Chem Lett, 2021).
